1 compound from patent publication US20050250837A1, “Use of C-Raf inhibitors for the treatment of neurodegenerative diseases” (priority 2002, published 2005) can be followed below.

In assay [1] the target is T1, C-Raf (Rattus norvegicus, UniProt P11345).
T1 construct: Activities of endogenous C-Raf and B-Raf activity was assayed by measuring the ability of kinase immunoprecipitated from neuronal lysates; endogenous in cells; host or cells: primary rat cerebellar granule neurons
Briefly: Activity of C-Raf immunoprecipitated from neuronal lysates, GST-MEK substrate, phospho-MEK Western. It counts as cell-based. Here is the method:
The immunoprecipitated C-Raf was used in in vitro kinase assays using GST-MEK as substrate and the reaction products subjected to Western analysis. Phosphorylation of MEK was detected using a phospho-MEK antibody. […] After 1 hour of treatment, the cultures were lysed, C-Raf immunoprecipitated from the lysate and used in an in vitro kinase assay with MEK as substrate. The reaction mixture was subjected to Western analysis using a phospho-MEK antibody as probe.
(Hall-Jackson et al., 1999). […] Lysates from the cultures were used in a kinase reaction with MEK as substrate. […] Phosphorylation of MEK was detected by Western blot analysis using an phospho-MEK antibody and the same blot was reprobed with a C-Raf antibody.
After treatment, cultures of 7-8-day old neurons were washed twice with ice-cold PBS and lysed in ice cold lysis buffer. The lysates were centrifuged for 10 min at 10,000 rpm at 4° C. Protein concentrations of the supernatant were measured using a Bradford protein assay kit (Bio-Rad), and equivalent amounts of protein were incubated overnight with primary antibody (1.0-2 ug) and then for 2 h with 20 ul Protein A/G PLUS-Agarose (Santa Cruz Biotech.) Immunoprecipitates were collected by centrifugation at 2,500 rpm for 5 min at 4° C. and washed three times with lysis buffer, and pellets resuspended in electrophoresis sample buffer (187.5 mM Tris-HCl (pH 6.8 at 25° C.), 6% SDS, 30% glycerol, 150 mM DTT, 0.03% bromophenol blue), boiled for 4 min and subjected to SDS-polyacrylamide gel electrophoresis.
Activities of endogenous C-Raf and B-Raf activity was assayed by measuring the ability of kinase immunoprecipitated from neuronal lysates to phosphorylate a kinase-dead recombinant GST-MEK1 substrate. Following immunoprecipitation and multiple washes with lysis buffer, lysis buffer supplemented with 350 mM NaCl, and kinase buffer (25 mM HEPES pH 7.4 and 10 mM MgCl2), in vitro kinase assays are performed on the immune complexes using purified recombinant GST-MEK1 K97M protein as a substrate in kinase buffer supplemented with 85 μM ATP for 35 minutes at 30° C. Reactions are stopped by the addition of 3×SDS sample buffer and boiled for five minutes. Proteins are resolved by SDS-PAGE and subjected to Western blotting. The level of phosphorylated MEK is detected by a phospho-MEK antibody.

Assay [2] concerns the target JNK1 (Homo sapiens, UniProt P45983). Briefly: In vitro kinase assay, purified kinase (Upstate Kinase Profiling). It counts as biochemical. From the text: (§1) (Lackey et al., 2000). […] A number of reports have implicated JNKs in the promotion of neuronal apoptosis both in vivo and in cell culture systems (Coffey et al., 2002). Although all three JNK proteins are expressed in neurons, the phosphorylation of c-jun is believed to be mediated by JNK2 or JNK3 (Bruckner et al., 2001; Bruckner and Estus, 2002; Coffey et al., 2002). […] In apoptotic neurons, JNK activation is mediated primarily by MKK7 (Eilers et al., 1998; Trotter et al., 2002).
(§2) In general, in vitro kinase assays were performed using purified kinase and synthetic substrates under standard conditions using the Kinase Profiling service of Upstate Biotechnology. Briefly, for each assay 5-10 mU of purified kinase was used. […] Kinase activity was quantified by measuring ^33P incorporation by spotting an aliquot on P30 filters, washing in 50 mM phosphoric acid and scintillation counting. The buffer composition for C-Raf, JNK1, JNK2, JNK3, MEK1, MKK6, MKK7 was 50 mM Tris pH7.5, 0.1 mM EGTA, 10 mM Mg acetate and [γ-^33P-ATP]. The peptide substrates used were as follows: For C-Raf, 0.66 mg/ml MBP; for cdks, 0.1 mg/ml histone H1; for JNKs, 3 uM ATF2; for MEK1, 1 uM MAPK2; for MKK6, 1 uM of SAPK2a and for MKK7, 2 uM JNK1α.

The target of assay [3] is MKK7 (Homo sapiens, UniProt O14733). The description is as above. The assay is classed as biochemical.
From the text: as §1, §2

For assay [4], the target named is MKK6 (Homo sapiens, UniProt P52564). The description is as above. The assay is classed as biochemical.
From the text: as §1, §2

The target in assay [5] is JNK2 (Homo sapiens, UniProt P45984). Described as above. The assay is classed as biochemical.
From the text: as §1, §2

Assay [6] addresses GSK3β (Homo sapiens, UniProt P49841). The description is as above. It counts as biochemical.
From the text: as §1, §2

The target in assay [7] is CDK1/cyclinB (Homo sapiens, UniProt P06493). The description is as above. It counts as biochemical.
From the text: as §1, §2

Assay [8] deals with CDK2/cyclinA (Homo sapiens, UniProt P24941). The assay is described as above. It counts as biochemical.
From the text: as §1, §2

The target in assay [9] is CDK6/cyclinD3 (Homo sapiens, UniProt Q00534). The description is as above. It counts as biochemical.
From the text: as §1, §2

Assay [10] has as its target MEK1 (Homo sapiens, UniProt Q02750). The description is as above. It counts as biochemical.
From the text: as §1, §2

For assay [11], the target named is CDK5/p35 (Homo sapiens, UniProt Q00535). Described as above. It counts as biochemical.
From the text: as §1, §2

The target of assay [12] is CDK2/cyclinE (Homo sapiens, UniProt P24941). The description is as above. The assay is classed as biochemical.
From the text: as §1, §2

Assay [13] deals with JNK3. The description is as above. The assay is classed as biochemical. The following applies: 1 uM GW5074, ATP 10 uM; percentage of control without GW5074, mean +/- SD.
From the text: as §1, §2

For assay [14], the system named is cerebellar granule neurons. In words: Methylmercury-induced cell death in cerebellar granule neurons. The assay is classed as cell-based, rat. The following applies: HK + 0.5 uM methylmercury, different concentrations of GW5074, 24 hours.

T1 sequence (P11345 whole entry): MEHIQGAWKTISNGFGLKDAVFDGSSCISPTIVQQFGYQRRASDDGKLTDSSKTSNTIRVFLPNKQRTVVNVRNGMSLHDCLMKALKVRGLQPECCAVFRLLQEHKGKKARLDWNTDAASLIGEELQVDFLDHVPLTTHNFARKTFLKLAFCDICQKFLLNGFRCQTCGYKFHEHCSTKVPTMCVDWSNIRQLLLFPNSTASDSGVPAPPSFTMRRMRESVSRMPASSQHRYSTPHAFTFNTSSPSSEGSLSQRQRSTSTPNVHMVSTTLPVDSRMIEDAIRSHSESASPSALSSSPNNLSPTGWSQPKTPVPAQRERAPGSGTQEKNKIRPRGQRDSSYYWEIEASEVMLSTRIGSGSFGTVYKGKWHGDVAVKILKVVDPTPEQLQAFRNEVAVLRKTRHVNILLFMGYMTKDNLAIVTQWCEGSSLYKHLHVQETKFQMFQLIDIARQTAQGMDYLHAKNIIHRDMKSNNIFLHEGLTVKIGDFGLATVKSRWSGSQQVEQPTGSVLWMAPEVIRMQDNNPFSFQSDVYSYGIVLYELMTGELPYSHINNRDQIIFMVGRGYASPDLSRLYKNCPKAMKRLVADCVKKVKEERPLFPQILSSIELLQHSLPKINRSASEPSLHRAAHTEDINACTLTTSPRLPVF
Chain of CDK5/p35 (Q00535 whole entry, species assumed): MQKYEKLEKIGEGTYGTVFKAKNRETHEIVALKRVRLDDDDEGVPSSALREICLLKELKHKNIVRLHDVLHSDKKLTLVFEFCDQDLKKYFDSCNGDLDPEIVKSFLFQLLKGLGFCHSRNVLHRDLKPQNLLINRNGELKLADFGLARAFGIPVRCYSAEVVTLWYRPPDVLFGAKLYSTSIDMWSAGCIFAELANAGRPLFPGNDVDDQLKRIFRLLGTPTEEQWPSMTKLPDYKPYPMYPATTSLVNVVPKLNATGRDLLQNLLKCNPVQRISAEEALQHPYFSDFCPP
Chain of CDK5/p35 (Q15078 whole entry partner, species assumed): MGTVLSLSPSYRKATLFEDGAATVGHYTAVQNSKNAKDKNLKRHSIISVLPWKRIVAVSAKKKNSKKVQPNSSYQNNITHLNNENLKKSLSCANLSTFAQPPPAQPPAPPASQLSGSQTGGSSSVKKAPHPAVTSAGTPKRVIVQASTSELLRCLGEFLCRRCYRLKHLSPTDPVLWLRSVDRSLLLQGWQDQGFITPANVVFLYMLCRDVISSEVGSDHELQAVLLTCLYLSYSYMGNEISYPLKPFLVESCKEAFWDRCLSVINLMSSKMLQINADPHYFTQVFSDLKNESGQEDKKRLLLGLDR
Chain of MKK7 (O14733 whole entry, species assumed): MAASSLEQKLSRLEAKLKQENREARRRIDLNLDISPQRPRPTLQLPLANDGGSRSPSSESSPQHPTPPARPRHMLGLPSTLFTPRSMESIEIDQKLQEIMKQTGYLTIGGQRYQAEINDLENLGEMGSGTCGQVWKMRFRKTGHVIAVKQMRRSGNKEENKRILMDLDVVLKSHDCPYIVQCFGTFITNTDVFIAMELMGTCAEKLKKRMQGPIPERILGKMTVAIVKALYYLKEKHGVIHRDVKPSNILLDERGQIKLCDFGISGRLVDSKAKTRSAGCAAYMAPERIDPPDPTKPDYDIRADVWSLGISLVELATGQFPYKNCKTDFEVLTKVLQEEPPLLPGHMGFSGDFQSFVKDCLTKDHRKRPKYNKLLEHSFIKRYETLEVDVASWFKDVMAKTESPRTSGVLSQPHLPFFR
Chain of CDK6/cyclinD3 (Q00534 whole entry, species assumed): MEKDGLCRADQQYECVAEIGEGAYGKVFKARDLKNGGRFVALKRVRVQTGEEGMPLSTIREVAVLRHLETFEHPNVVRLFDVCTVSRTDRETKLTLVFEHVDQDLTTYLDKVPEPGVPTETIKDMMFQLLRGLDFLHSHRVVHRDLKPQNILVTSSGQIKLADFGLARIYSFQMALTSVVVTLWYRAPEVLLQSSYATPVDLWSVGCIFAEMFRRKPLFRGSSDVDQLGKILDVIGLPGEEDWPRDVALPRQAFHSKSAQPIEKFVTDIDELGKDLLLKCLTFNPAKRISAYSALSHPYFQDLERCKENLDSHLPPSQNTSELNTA
Chain of CDK6/cyclinD3 (P30281 whole entry partner, species assumed): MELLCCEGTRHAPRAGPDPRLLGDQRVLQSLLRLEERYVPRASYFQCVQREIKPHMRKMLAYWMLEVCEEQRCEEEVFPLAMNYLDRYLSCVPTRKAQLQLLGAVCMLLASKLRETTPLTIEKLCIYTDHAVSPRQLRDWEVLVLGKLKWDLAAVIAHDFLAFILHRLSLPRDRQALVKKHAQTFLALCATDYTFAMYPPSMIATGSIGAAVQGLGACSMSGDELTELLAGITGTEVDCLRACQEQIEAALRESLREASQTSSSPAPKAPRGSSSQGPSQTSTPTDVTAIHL
Chain of JNK1 (P45983 whole entry, species assumed): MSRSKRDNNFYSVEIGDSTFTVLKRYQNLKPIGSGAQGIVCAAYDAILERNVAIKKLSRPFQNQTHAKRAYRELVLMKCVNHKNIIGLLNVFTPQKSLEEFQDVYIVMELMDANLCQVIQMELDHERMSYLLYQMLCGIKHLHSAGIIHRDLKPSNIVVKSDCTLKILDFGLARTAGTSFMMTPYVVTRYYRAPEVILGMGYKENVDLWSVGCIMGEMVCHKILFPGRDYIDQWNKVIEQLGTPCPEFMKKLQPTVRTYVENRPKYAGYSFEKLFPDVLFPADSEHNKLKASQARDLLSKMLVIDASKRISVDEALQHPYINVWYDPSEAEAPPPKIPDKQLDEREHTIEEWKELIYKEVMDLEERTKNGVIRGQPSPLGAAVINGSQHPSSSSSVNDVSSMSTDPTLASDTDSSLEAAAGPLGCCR
Chain of JNK2 (P45984 whole entry, species assumed): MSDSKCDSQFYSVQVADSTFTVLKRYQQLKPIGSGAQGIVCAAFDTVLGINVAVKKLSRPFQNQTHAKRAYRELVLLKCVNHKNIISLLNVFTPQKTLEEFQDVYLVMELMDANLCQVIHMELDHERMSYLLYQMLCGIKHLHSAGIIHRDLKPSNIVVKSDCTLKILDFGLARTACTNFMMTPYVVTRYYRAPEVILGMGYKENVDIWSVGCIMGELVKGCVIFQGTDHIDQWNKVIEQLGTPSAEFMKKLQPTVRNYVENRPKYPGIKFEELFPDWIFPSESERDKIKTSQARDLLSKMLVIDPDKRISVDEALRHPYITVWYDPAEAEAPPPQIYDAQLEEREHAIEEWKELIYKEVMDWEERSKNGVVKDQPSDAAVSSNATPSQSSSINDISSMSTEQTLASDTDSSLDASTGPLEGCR
Chain of MKK6 (P52564 whole entry, species assumed): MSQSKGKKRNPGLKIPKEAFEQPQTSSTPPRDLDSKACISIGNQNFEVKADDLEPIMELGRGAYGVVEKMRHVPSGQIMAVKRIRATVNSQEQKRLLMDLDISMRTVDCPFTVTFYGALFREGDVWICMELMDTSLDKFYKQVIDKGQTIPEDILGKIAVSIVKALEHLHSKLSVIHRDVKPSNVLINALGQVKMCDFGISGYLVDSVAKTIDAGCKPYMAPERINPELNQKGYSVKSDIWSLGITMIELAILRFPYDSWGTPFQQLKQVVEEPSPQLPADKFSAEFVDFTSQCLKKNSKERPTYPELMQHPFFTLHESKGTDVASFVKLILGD
Chain of CDK1/cyclinB (P06493 whole entry, species assumed): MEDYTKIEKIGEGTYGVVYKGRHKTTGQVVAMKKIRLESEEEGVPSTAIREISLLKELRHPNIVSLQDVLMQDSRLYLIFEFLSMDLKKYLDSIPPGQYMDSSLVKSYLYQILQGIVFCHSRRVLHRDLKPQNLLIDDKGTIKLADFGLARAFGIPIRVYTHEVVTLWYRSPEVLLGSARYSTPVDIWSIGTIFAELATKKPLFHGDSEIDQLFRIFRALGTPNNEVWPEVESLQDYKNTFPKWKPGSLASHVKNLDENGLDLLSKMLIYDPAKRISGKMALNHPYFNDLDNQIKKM
Chain of CDK1/cyclinB (P14635 whole entry partner, species assumed): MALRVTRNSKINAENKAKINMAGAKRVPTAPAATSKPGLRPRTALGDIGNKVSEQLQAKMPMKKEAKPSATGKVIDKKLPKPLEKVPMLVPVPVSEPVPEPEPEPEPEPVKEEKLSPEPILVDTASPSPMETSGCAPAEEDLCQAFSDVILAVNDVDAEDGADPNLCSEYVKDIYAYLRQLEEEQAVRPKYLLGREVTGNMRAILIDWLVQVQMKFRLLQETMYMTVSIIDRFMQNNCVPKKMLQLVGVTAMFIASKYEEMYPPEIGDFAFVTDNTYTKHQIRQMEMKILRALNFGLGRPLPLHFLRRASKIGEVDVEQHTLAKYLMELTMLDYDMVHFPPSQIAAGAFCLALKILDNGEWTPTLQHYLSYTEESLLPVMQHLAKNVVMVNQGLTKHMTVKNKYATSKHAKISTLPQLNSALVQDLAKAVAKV
Chain of GSK3β (P49841 whole entry, species assumed): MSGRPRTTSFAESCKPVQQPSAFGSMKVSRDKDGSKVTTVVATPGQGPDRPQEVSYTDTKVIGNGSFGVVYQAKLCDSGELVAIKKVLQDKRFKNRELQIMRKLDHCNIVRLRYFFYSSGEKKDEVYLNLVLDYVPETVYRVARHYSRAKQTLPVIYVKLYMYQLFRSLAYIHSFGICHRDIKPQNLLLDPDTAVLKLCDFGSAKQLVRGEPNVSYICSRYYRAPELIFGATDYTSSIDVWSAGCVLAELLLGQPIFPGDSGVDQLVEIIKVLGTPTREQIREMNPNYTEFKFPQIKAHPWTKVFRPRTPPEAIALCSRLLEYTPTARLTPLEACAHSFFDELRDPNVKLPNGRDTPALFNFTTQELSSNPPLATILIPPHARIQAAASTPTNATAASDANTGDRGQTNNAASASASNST

In the case of `O=C1Nc2ccc(I)cc2C1=Cc1cc(Br)c(O)c(Br)c1` [GW5074, 5-Iodo-3-[(3,5-dibromo-4-hydroxyphenyl)methylene]-2-indolinone], the “concentration inhibiting immunoprecipitated C-Raf when added in vitro” value in assay [1] (GW5074 added to the immunoprecipitated enzyme in the kinase reaction) was “lower than 1 uM”. Moreover, the “activity of C-Raf immunoprecipitated from treated cultures” value in assay [1] (LK + GW5074 0.25-5 uM, 1 hour) is given as “marked induction”. Also, the activity at 1 µM stood at 94 ± 3% in assay [2]; 104 ± 8% in assay [3]; 91 ± 4% in assay [4]; 91 ± 4% in [5]; 81 ± 6% in assay [6]; 90 ± 12% in [7]. The activity at 1 µM in assay [8] stood at 99%; in assay [9] it was 98 ± 1%; in assay [10], 94 ± 4%; in assay [11], 94 ± 2%; in [12], 100 ± 5%. The “% ACTIVITY JNK3” value in assay [13] was 89 ± 9%. Also, the methylmercury-induced cell death entry in assay [14] is “reduced methylmercury-induced cell death”.
